Read-outs that look alike come from different tables or passages of the source.

For assay [1], the target named is LDT3 (Mycobacteroides abscessus, UniProt B1MHQ4). In words: Mass spectrometric analysis of acyl-enzyme adducts. The assay is classed as binding, Mycobacterium abscessus. The settings on record: LDT3 (44,795); 1:10 molar ratio, 2 h; accuracy ±5 Da. The method, then: (§1) Truncated sequences of BlaMab (Δ1–30 blaMab), LDT1–5, DDC, PBP B, PonA2, and PBP-lipo (Δ1–41) were synthesized by Celtek Biosciences (Franklin, TN) and cloned into the pET28(a)+ vector. Purification of LDTs and PBPs was carried out as previously described ([15], [16], [20]). Briefly, clones were transformed into Escherichia coli BL21 (DE3), and protein expression was induced with 0.25 mM isopropyl β-d-1-thiogalactopyranoside. Cell pellets were resuspended in buffer containing 50 mM Tris (pH 8.0), 400 mM sodium chloride, and 1 mM Tris(2-carboxyethyl)phosphine hydrochloride and lysed by sonication. After centrifugation, the supernatant was purified using a His Prep FF column and eluted with 500 mM imidazole.
(§2) The purified proteins were incubated at room temperature with JDB/NA-1-157 and JDB/NA-1-208 at a molar ratio of 1:10 for 2 h. A quadrupole time-of-flight mass spectrometer (Waters Synapt-G2-Si) with electrospray ionization and a Waters Acquity H-Class UPLC system were used to analyze the samples. The liquid chromatography conditions were as follows: a BEH C18 column (1.7 µm, 2.1 × 50 mm) and a mobile phase consisting of 0.1% formic acid in water and 0.1% formic acid in acetonitrile, with a gradient elution from 10% to 90% acetonitrile over 11 min at a flow rate of 0.5 mL/min. The MS settings were optimized with a capillary voltage of 3 kV, a sampling cone voltage of 35 V, and source and desolvation temperatures of 100°C and 500°C, respectively. Gas flow rates were 100 L/h for the cone and 800 L/h for desolvation. The mass accuracy was maintained at ±5 Da.

The target in assay [2] is LDT4 (Mycobacteroides abscessus, UniProt B1MKW1). In words: Mass spectrometric analysis of acyl-enzyme adducts. The assay is classed as binding, Mycobacterium abscessus. The settings on record: LDT4 (32,567); 1:10 molar ratio, 2 h; accuracy ±5 Da. The method, then: as §1, §2
The subject of assay [3] is Mab ATCC 19977. In words: MIC testing against Mab ATCC 19977, single agent and combinations. Format: cell-based, Mycobacterium abscessus. The method, then: MICs were determined in duplicate following Clinical Laboratory Standards Institute ([52]) guidelines using Middlebrook 7H9 broth supplemented with 10% (vol/vol) oleic acid-albumin-dextrose-catalase (OADC) and 0.05% (vol/vol) Tween 80, with an inoculum of 5 × 10⁵ CFU/mL. MIC testing of two C5α-substituted carbapenems was conducted both individually and in combination with cephalosporins (cefuroxime and ceftaroline), penicillins (amoxicillin), or BLIs (avibactam or durlobactam + sulbactam). Avibactam, durlobactam, cefuroxime, ceftaroline, and amoxicillin were fixed at concentrations of 4, 1, 2, 4, and 4 mg/L, respectively. […] The MIC was defined as the lowest antibiotic concentration that inhibited visible bacterial growth following 48 h of incubation at 30°C.

Assay [4] has as its target LDT2 (Mycobacteroides abscessus, UniProt B1MMQ4). In words: Apparent inhibition constant (nitrocefin, Dixon plot). Format: biochemical, Mycobacterium abscessus. The following applies: Ki,app. The method, then: (§3) Steady-state kinetic studies with JDB/NA-1-157 and JDB/NA-1-208 were performed using purified LDTs and PBPs, including LDT1–5, PBP-B, PBP-lipo, and D,D-carboxypeptidase. The assays were conducted on a BioTek Synergy2 multimode reader equipped with Gen5 software. To determine the Michaelis constant (Km^NCF) for each LDT and PBP, a wide range of NCF concentrations was tested, while the enzyme concentrations were fixed. Absorbance changes at 482 nm were monitored over 10 min. Steady-state kinetic parameters (Vmax and Km) were derived by fitting the experimental data to the Henri–Michaelis–Menten equation using nonlinear least-squares regression in GraphPad Prism version 9. The reaction velocity (v) at a given substrate concentration ([S]) was calculated using equation 2: […]
(§4) The apparent inhibition constants (Ki,app) for JDB/NA-1-157 and JDB/NA-1-208 were determined under the following conditions: an NCF concentration of 5 × Km, fixed concentrations of LDT or PBP enzymes, and varying concentrations of JDB/NA-1-157 and JDB/NA-1-208. Absorbance changes at 482 nm were monitored over a 30 min period for each inhibitor concentration. The data were linearized using a Dixon plot, which involves plotting the reciprocal of the absorbance change (1/ΔA) against the concentrations of JDB/NA-1-157 or JDB/NA-1-208. Apparent Ki,app values were derived from the intersection points on the Dixon plot and were subsequently corrected for substrate concentration and enzyme affinity using equation 3:
(§5) (3) Ki,app=observed Ki,app/1+[NCF]/Km NCF.

In assay [5] the target is LDT1 (Mycobacteroides abscessus, UniProt B1MDC1). The description is as above. The assay is classed as biochemical, Mycobacterium abscessus. The settings on record: Ki,app. The method, then:
as §3, §4, §5

The target in assay [6] is PonA2 (Mycobacteroides abscessus, UniProt B1MFV7). The assay is described as above. Format: biochemical, Mycobacterium abscessus. The settings on record: Ki,app. The method, then:
as §3, §4, §5

Assay [7] addresses PBP B (Mycobacteroides abscessus, UniProt B1MP31). Described as above. Format: biochemical. The following applies: PBP B. The method, then:
as §3, §4, §5

The subject of assay [8] is Mab ATCC 19977. In words: MIC testing with drugs pre-incubated in 7H9 broth (effect of drug instability). The assay is classed as cell-based, Mycobacterium abscessus. The following applies: for MIC: Mycobacteroides abscessus, ATCC19977; for MIC rise after 24 and 48 h incubation vs nonincubated: drug incubated 24 and 48 h. The method, then:
MICs were determined in duplicate following Clinical Laboratory Standards Institute ([52]) guidelines using Middlebrook 7H9 broth supplemented with 10% (vol/vol) oleic acid-albumin-dextrose-catalase (OADC) and 0.05% (vol/vol) Tween 80, with an inoculum of 5 × 10⁵ CFU/mL. MIC testing of two C5α-substituted carbapenems was conducted both individually and in combination with cephalosporins (cefuroxime and ceftaroline), penicillins (amoxicillin), or BLIs (avibactam or durlobactam + sulbactam). Avibactam, durlobactam, cefuroxime, ceftaroline, and amoxicillin were fixed at concentrations of 4, 1, 2, 4, and 4 mg/L, respectively. Amoxicillin was combined with 4 mg/L avibactam, as it is highly susceptible to hydrolysis by BlaMab ([12], [15], [25]). The MIC was defined as the lowest antibiotic concentration that inhibited visible bacterial growth following 48 h of incubation at 30°C.

Where [9] appears, read: Mycobacteroides abscessus, ATCC19977, 48 h, alone (single agent), read-out: MIC.
[10] abbreviates: drug incubated 6 h in 7H9 broth at 30°C.
Setting [11] is: drug incubated 24 h in 7H9 broth at 30°C.
Setting [12] is: drug incubated 48 h in 7H9 broth at 30°C.

Chain of PonA2 (B1MFV7 entry or part of it): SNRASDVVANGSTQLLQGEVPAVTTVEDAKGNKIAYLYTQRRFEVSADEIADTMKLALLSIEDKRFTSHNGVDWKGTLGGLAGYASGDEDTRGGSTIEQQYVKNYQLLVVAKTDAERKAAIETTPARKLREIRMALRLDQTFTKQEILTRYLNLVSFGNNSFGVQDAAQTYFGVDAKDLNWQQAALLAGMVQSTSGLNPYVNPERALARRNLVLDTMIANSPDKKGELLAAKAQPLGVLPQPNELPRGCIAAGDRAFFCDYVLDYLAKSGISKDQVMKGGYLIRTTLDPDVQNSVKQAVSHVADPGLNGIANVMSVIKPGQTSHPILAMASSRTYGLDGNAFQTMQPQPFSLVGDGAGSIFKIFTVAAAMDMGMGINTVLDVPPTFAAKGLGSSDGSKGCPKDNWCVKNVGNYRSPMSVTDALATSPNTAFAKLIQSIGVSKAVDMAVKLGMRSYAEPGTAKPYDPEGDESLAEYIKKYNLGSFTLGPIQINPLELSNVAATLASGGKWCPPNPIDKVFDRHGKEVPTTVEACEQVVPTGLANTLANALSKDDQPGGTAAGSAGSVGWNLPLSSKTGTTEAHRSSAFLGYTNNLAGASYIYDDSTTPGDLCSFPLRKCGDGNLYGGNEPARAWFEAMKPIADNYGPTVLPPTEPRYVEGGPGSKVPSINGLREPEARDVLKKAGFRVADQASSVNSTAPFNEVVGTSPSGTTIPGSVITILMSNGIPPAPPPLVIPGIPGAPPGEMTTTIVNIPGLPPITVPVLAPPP
Chain of LDT2 (B1MMQ4 entry or part of it): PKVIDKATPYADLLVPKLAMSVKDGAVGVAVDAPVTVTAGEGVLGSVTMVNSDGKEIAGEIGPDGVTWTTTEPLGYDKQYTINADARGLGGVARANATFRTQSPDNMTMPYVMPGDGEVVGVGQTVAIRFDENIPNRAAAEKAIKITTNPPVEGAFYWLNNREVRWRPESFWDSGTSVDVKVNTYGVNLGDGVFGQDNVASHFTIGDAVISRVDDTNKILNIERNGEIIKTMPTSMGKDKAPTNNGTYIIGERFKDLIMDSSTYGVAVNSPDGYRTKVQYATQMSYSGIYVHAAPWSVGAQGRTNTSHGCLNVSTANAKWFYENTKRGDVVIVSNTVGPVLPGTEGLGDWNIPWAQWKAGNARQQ
Chain of LDT3 (B1MHQ4 entry or part of it): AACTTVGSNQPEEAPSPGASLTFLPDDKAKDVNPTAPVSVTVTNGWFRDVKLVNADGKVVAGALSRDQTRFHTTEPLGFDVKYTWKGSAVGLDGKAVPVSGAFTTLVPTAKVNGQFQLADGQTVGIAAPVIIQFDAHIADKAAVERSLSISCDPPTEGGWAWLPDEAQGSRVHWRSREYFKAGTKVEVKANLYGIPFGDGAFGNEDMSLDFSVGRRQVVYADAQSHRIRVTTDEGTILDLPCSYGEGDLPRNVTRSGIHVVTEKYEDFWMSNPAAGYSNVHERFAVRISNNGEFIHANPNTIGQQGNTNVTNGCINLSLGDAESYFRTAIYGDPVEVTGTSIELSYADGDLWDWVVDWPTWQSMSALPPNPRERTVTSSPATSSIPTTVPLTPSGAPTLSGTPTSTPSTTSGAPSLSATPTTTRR
Chain of LDT4 (B1MKW1 entry or part of it): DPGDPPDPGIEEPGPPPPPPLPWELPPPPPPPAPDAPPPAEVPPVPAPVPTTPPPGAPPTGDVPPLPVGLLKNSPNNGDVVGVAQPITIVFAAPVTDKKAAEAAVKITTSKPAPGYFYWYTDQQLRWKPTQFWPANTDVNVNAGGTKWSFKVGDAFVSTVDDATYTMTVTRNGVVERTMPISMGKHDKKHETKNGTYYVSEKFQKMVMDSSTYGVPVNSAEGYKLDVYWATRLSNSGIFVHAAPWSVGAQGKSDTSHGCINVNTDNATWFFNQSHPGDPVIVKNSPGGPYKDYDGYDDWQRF
Chain of PBP B (B1MP31 entry or part of it): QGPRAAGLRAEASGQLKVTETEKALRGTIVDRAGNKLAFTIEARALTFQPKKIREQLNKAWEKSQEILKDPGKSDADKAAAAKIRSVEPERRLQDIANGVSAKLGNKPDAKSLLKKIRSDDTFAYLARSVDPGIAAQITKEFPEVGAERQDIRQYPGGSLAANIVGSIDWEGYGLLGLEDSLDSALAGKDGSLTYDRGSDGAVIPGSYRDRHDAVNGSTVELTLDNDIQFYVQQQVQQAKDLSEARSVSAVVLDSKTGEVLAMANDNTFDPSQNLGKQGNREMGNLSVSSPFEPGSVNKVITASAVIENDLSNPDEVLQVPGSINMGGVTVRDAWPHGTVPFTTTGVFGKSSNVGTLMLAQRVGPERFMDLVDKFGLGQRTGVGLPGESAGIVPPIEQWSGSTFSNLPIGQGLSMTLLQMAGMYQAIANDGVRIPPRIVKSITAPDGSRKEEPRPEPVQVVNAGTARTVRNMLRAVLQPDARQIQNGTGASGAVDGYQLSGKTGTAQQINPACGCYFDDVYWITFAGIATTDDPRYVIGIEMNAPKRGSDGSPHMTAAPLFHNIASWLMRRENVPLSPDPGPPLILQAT
Chain of LDT1 (B1MDC1 entry or part of it): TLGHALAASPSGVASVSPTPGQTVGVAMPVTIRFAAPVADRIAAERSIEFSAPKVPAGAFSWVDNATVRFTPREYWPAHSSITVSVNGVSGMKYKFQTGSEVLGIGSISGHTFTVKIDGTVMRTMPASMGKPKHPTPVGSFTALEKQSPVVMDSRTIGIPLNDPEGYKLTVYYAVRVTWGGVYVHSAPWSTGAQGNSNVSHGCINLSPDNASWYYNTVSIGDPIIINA

Broadly, the MIC is the smallest concentration in the dilution series that meets the test's criterion for growth inhibition. Consider `C[C@@H](O)[C@H]1C(=O)N2C(C(=O)O)=C(S[C@@H]3CN[C@H](C(=O)N(C)C)C3)C[C@]12C` [JDB/NA-1-157], for which the “Mass of protein after incubation (mass shift)” value in assay [1] is recorded as 45,178 (+383) Da; in assay [2] it was 32,950 (+383) Da. Further, the MIC in assay [3] (+AMX (4 mg/L) + AVI (4 mg/L)) is 0.125 µg/mL; in assay [3] (+AVI (4 mg/L)), 0.5 µg/mL; in assay [3] (+CFT (4 mg/L)), 0.125 µg/mL; in assay [3] (+CXM (2 mg/L)), 0.125 µg/mL; in assay [3] (+DUR (1 mg/L)), 0.25 µg/mL; in assay [3] (setting [9]), 0.5 µg/mL. Besides, the minimal inhibitory concentration (MIC) in assay [8] (setting [10]) worked out at 0.25 µg/mL; in assay [8] (setting [11]) it was 2 µg/mL; in assay [8] (setting [12]), 2 µg/mL; in assay [8] (no incubation of drug), 0.25 µg/mL. The “fold reduction in MIC on combination” value in assay [3] (combined with cefuroxime, ceftaroline, or amoxicillin (with avibactam), Table 1, Fig. 3) is no more than 4 fold. The Ki was 130 nM in assay [4], 7980 nM in assay [5], 7.82 nM in assay [6] and 4900 nM in assay [7] (Ki,app). For the same molecule, the “MIC rise after 24 and 48 h incubation vs nonincubated” value in assay [8] is reported as “fourfold”.
For `CC[C@]12CC(S[C@@H]3CN[C@H](C(=O)N(C)C)C3)=C(C(=O)O)N1C(=O)[C@@H]2[C@@H](C)O` [JDB/NA-1-208], the “Mass of protein after incubation (mass shift)” value in assay [1] is given as 45,194 (+397) Da; in assay [2], 32,964 (+397) Da. Also, the MIC in assay [3] (+AMX (4 mg/L) + AVI (4 mg/L)) is no more than 0.0313 µg/mL; in assay [3] (+AVI (4 mg/L)) it was 32 µg/mL; in assay [3] (+CFT (4 mg/L)), 4 µg/mL; in assay [3] (+CXM (2 mg/L)) it was 8 µg/mL; in assay [3] (+DUR (1 mg/L)), 32 µg/mL; in assay [3] (setting [9]) it was 32 µg/mL. For the same molecule, the minimum inhibitory concentration (MIC) is 16 µg/mL in assay [8] (setting [10]), 32 µg/mL in assay [8] (setting [11]), 32 µg/mL in assay [8] (setting [12]) and 16 µg/mL in assay [8] (no incubation of drug). In addition, the Ki was 166 nM in assay [4], 1110 nM in assay [5], 352 nM in assay [6] and 80.5 nM in assay [7] (read-out: Ki,app (converted)). For the same molecule, the “MIC rise after 24 and 48 h incubation vs nonincubated” value in assay [8] is on record as “twofold”.

These data come from paper PMC12326981, “Novel C5α-substituted carbapenems enhance Mycobacterium abscessus killing via selective target binding and reduced hydrolysis by BlaMab” (Antimicrobial Agents and Chemotherapy, 2025).
